Measured values taken from patent publication US20260258420A1, “COMPOSITIONS AND METHODS FOR THE TREATMENT OF HUMAN PAPILLOMAVIRUS-DRIVEN CANCERS” (priority 2023, published 2026).

Legend:
[1] = system: 16 HPV-positive and 17 HPV-negative HNSCC and cervical squamous cancer cell lines; test: High-throughput drug screen (HTDS), whole panel, comparison by HPV status; format: cell-based; conditions: AOC_LD as a dichotomous variable
Experimental: The concordance correlation coefficient was computed to assess the reproducibility of the normalized growth rates of the 2 replicates. […] A chi-square test was applied to compare drug classification and the cluster membership. The Fisher exact test was applied to compare mutations status (wild-type and mutant) and drugs' response data (sensitive and resistant).
The effects of 864 unique drugs from 51 classes was tested in 16 HPV-positive and 17 HPV-negative HNSCC and cervical squamous cancer cell lines (Table 2) that were characterized previously (Kaiu, et al., Oncotarget 2017; 8(49):86369-83).

[2] = system: HPV-negative UMSCC22A cells; test: In vivo tumor growth, HPV-negative xenograft; design: species or system mice; conditions: 10 mg/kg oral gavage 5 days per week for 21 days, high Rb protein levels
Experimental: PDX tumors HOSC144 (FIG. 3A, FIG. 3E, FIG. 3F), HOSC19 (FIG. 3B), and HOSC156 (FIG. 3C) were implanted into the flanks of nude mice. After engraftment, mice were randomized and assigned into 1 of 2 treatment groups: vehicle (β-cyclodextrin, n=8) or alisertib (10 mg/kg, n=8). Mice were treated for 3 weeks by daily oral gavage. Tumor size was measured twice a week. FIG. 3A, FIG. 3B, and FIG. 3C show in vivo tumor growth curves for individual mice (left 3 panels). Survival (right panels) was measured using the Kaplan-Meier method. In FIG. 3D, HPV-negative UMSCC22A cells were injected subcutaneously (3×10^6 cells) on the right flanks of the mice. Once the tumor volume reached ≥60 mm^3, mice were randomized into treatment groups. Mice were treated with vehicle or 10 mg/kg alisertib by oral gavage for 5 days per week for 21 days. Tumor size was measured twice a week. […] The Ki67(%) was calculated as the ratio of proliferative cells to total cells in each field, using five random fields. […] The apoptotic (%) was calculated as the ratio of apoptotic cells to total cells in each field, using five random fields in HOSC144 PDX tumors after 8 or 21 days of treatment with either vehicle or alisertib. ** P≤0.01; *** P≤0.001. Bars, […]. […]

[3] = system: PDX tumors HOSC144, HOSC19, HOSC156 (p16-positive oropharynx cancer); test: In vivo tumor growth study, HPV-positive PDX models; design: species or system nude mice
Experimental: PDX tumors HOSC144 (FIG. 3A, FIG. 3E, FIG. 3F), HOSC19 (FIG. 3B), and HOSC156 (FIG. 3C) were implanted into the flanks of nude mice. After engraftment, mice were randomized and assigned into 1 of 2 treatment groups: vehicle (β-cyclodextrin, n=8) or alisertib (10 mg/kg, n=8). Mice were treated for 3 weeks by daily oral gavage. Tumor size was measured twice a week. FIG. 3A, FIG. 3B, and FIG. 3C show in vivo tumor growth curves for individual mice (left 3 panels). Survival (right panels) was measured using the Kaplan-Meier method. In FIG. 3D, HPV-negative UMSCC22A cells were injected subcutaneously (3×10^6 cells) on the right flanks of the mice. Once the tumor volume reached ≥60 mm^3, mice were randomized into treatment groups. Mice were treated with vehicle or 10 mg/kg alisertib by oral gavage for 5 days per week for 21 days. Tumor size was measured twice a week. […] The Ki67(%) was calculated as the ratio of proliferative cells to total cells in each field, using five random fields. […] The apoptotic (%) was calculated as the ratio of apoptotic cells to total cells in each field, using five random fields in HOSC144 PDX tumors after 8 or 21 days of treatment with either vehicle or alisertib. ** P≤0.01; *** P≤0.001. Bars, 100 μM.
The in vivo tumor growth study was performed in accordance with the Guide for the Care and Use of Laboratory Animals of the National Institutes of Health and approved by MD Anderson's Institutional Animal Care and Use Committee. The PDX models were generated as described previously (Peng, et al., J Transl Med 2013; 11:198), and subjected to qPCR as described to determine the HPV type (Chaturvedi, et al., The Journal of Infectious Diseases 2014; 210(3):441-7; Fakhry, et al, JAMA Oncol 2019; 5(7):985-92). Briefly, tumor tissue was cut into small fragments (5-6 mm) and implanted subcutaneously into the flanks of nude mice. The skin incisions were closed with skin clips that were removed after 10 to 15 days. Once tumors reached an average of 150 to 300 mm^3, the mice were randomized into either vehicle group or alisertib group. Alisertib (Takeda Pharmaceuticals, Lexington, MA; 10 mg/kg in 10% β-cyclodextrin) was administered via oral gavage once daily on a weekly schedule of 6 days on and 1 day off. Tumors were monitored daily, and tumor volume (length×width^2×0.5) was evaluated twice per week with digital calipers. Mice were euthanized when tumors reached 2000 mm^3. The endpoint for the survival studies was the tumor burden. Survival was measured using the Kaplan-Meier method. Survival curve analysis was performed with GraphPad Prism software version 9 (RRID:SCR_002798).
To test the effect of Aurora kinase inhibition in vivo, three patient-derived xenograft (PDX) models that were derived from patients with p16-positive oropharynx cancer [HOSC144 (HPV16, HPV52), HOSC19 (HPV18, HPV59), and HOSC 156 (HPV18)], were implanted in nude mice. A low dose of alisertib (10 mg/kg) was administered continuously for 3 weeks. […] In addition, an HPV-negative cell line with high Rb protein levels was also tested and it was observed that it was resistant to alisertib treatment (FIG. 3D).

[4] = system: HN31 and MDA886LN cells expressing RB1 shRNA; test: Apoptosis with TRIP13 overexpression, RB1-knockdown HPV-negative cells; format: cell-based; conditions: 300 nmol/L
Experimental: FIG. 5A, two HPV-positive cell lines (CASKI and SIHA) were transfected with BUB1B or MAD2L1 siRNA and then treated for 24 hours with 300 nmol/L alisertib before lysis and immunoblotting with the indicated antibodies. FIG. 5B, TRIP13 was transiently overexpressed (Ox) in 2 HPV-positive cell lines that were treated for 24 hours with 300 nmol/L alisertib before lysis and immunoblotting for the indicated proteins. FIG. 5C, HPV-positive cell lines with TRIP13 overexpression were treated with 300 nmol/L alisertib for 32 hours and then stained for annexin V-PE/7AAD staining and analysis with flow cytometry to measure apoptosis. The bar graph represents the ratio of apoptosis (late plus early) among different groups. Values are the means±the standard deviations for 3 independent experiments. ** P≤0.01; *** P≤0.001; unpaired, 2-tailed Student t-test. FIG. 5D, HN31 (left panel) and MDA886LN (right panel) cells expressing RB1 or control shRNA were transfected with a plasmid for TRIP13. After 24 hours, cells were treated with 300 nmol/L alisertib and then lysed for immunoblotting. Cl, cleaved; Fl, full length; GAPDH, glyceraldehyde 3-phosphate dehydrogenase.
In normal cells, prolonged mitosis resulting from Mad2 overexpression can lead to G1 arrest or mitotic cell death, so it is unclear why Mad2 overexpression is tolerated in HPV-positive cancers. […]

[5] = system: 3 HPV-positive and 3 HPV-negative cell lines; test: Immunoblot of cleaved PARP and cleaved caspase-3; format: cell-based; conditions: 72 hours or 2 doubling times
Experimental: BrdU positive apoptotic cells were detected and quantified. The bar graph indicates the percentage of apoptotic cells with fragmented DNA in HPV-positive and HPV-negative cell lines. Values are the means±the standard deviations for 3 independent experiments. FIG. 2B and FIG. 2C show immunoblots of cleaved PARP (Cl. PARP) and cleaved caspase-3 (Cl. […] UM47, UMSCC47; GAPDH, glyceraldehyde 3-phosphate dehydrogenase. Western blot analysis was performed as described previously (Ferrarotto, et al., Clin Cancer Res 2016; 22(7):1674-86). In brief, cells were lysed with ice-cold lysis buffer, and the lysates were centrifuged at 20,000×g for 10 minutes at 4° C. Cell lysates containing equal amounts of protein were resolved using sodium dodecyl sulfate-polyacrylamide gel electrophoresis, transferred to nitrocellulose membranes, and incubated with different primary antibodies. Protein expression was detected using a horseradish peroxidase-conjugated secondary antibody (Bio-Rad, Hercules, CA) and electrochemiluminescence reagent (Amersham Biosciences, Pittsburgh, PA).

[6] = HOSC144 tumors, days 8 and 21, vs vehicle

With `COc1cc(Nc2ncc3c(n2)-c2ccc(Cl)cc2C(c2c(F)cccc2OC)=NC3)ccc1C(=O)O` [ALISERTIB, alisertib] the “efficacy in HPV-positive vs HPV-negative cell lines” value [1] was “tended to be more effective in HPV-positive cell lines”, the tumor response [2] was “resistant” and the “response after treatment was stopped” value ([3]; 10 mg/kg oral gavage, 3 weeks) was “sustained response”. The tumor growth ([3]; 10 mg/kg oral gavage, 3 weeks) was “clear evidence of tumor regression”, the survival duration ([3]; 10 mg/kg oral gavage, 3 weeks, Kaplan-Meier) was “concordant increase in survival duration” and the “Ki67 staining in tumors” value [3, 6] was “significantly lower levels of Ki67 staining”. For the same compound, the “cleaved caspase-3 in tumors” value [3, 6] was “increased levels of cleaved caspase-3”, the “apoptosis with TRIP13 overexpression” value [4] was “reduced apoptosis” and the “caspase-3 activation and PARP cleavage” value [5] was “selective caspase-3 activation and PARP cleavage in HPV-positive cancer cell lines”.
